Reference: patent publication US20120101095A1, “ALKOXY-THIENOPYRIMIDINES AS TGF-BETA RECEPTOR KINASE MODULATORS” (priority 2009, published 2012)

These compounds were tested against T1, GST-ALK5 (Homo sapiens, UniProt P36897) (assay: In-vitro (enzyme) kinase assay, 384-well flashplate, GST-SMAD2 substrate). Conditions: 31.2 nM GST-ALK5, 439 nM GST-SMAD2, 3 mM ATP, 30° C., 45 min.
T1 sequence (P36897 34-503): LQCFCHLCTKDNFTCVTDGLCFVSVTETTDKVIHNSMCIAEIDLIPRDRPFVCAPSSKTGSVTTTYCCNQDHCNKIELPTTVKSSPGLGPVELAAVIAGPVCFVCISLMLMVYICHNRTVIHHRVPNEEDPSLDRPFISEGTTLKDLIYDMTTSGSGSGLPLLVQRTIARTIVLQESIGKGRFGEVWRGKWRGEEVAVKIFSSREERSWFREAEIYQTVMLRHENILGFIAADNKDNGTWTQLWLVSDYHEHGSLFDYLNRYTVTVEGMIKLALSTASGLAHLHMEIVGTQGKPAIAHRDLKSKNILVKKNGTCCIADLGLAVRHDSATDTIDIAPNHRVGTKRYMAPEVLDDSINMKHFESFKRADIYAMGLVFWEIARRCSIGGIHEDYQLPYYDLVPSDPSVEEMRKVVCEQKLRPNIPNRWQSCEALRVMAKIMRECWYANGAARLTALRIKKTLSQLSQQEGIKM
Type: biochemical
Procedure: In-Vitro (Enzyme) Assay for Determination of the Efficacy of Inhibitors of the Inhibition of TGF-Beta-Mediated Effects
The kinase assay was carried out as 384-well flashplate assay. 31.2 nM of GST-ALK5, 439 nM of GST-SMAD2 and 3 mM of ATP (with 0.3 μCi of ^33P-ATP/well) were incubated in a total volume of 35 μl (20 mM of HEPES, 10 mM of MgCl2, 5 mM of MnCl2, 1 mM of DTT, 0.1% of BSA, pH 7.4) without or with test substance (5-10 concentrations) at 30° C. for 45 min. The reaction was stopped using 25 μl of 200 mM EDTA solution, filtered with suction at room temperature after 30 min, and the wells were washed with 3 times 100 μl of 0.9% NaCl solution. Radioactivity was measured in the TopCount. The IC50 values were calculated using RS1 (Table 1). Above and below, all temperatures were indicated in ° C.
`Cc1ccc(-c2nc(OCCCO)nc3sc(C(N)=O)c(N)c23)o1` [No 22, 5-Amino-2-(3-hydroxy-propoxy)-4-(5-methyl-furan-2-yl)-thieno[2,3-d]pyrimidine-6-carboxylic acid amide] was tested, and the IC50 was 100 to 500 nM.
In the case of `Cc1ccc(-c2nc(OCCN3CCOCC3)nc3sc(C(N)=O)c(N)c23)o1` [No 20, 5-Amino-4-(5-methyl-furan-2-yl)-2-(2-morpholin-4-yl-ethoxy)-thieno[2,3-d]pyrimidine-6-carboxylic acid amide], the IC50 is reported as > 1000 nM.
`COc1nc(-c2cccc(Cl)c2)c2c(N)c(C(N)=O)sc2n1` [No 6, 5-Amino-4-(3-chloro-phenyl)-2-methoxy-thieno[2,3-d]pyrimidine-6-carboxylic acid amide] was tested, and the IC50 was < 100 nM.
`NC(=O)c1sc2nc(O[C@H]3CNC(=O)C3)nc(-c3cccc(Cl)c3)c2c1N` [No 63, 5-Amino-4-(3-chloro-phenyl)-2-((R)-5-oxo-pyrrolidin-3-yloxy)-thieno[2,3-d]pyrimidine-6-carboxylic acid amide] was tested, and the IC50 was 100 to 500 nM.
With `NC(=O)c1sc2nc(OCc3ccn(CCO)n3)nc(-c3cccc(Cl)c3)c2c1N` [No 74, 5-Amino-4-(3-chloro-phenyl)-2-[1-(2-hydroxy-ethyl)-1H-pyrazol-3-ylmethoxy]-thieno[2,3-d]pyrimidine-6-carboxylic acid amide] the IC50 was < 100 nM.
`NC(=O)c1sc2nc(OCCO)nc(-c3cccc(Cl)c3)c2c1N` [No 13, 5-Amino-4-(3-chloro-phenyl)-2-(2-hydroxy-ethoxy)-thieno[2,3-d]pyrimidine-6-carboxylic acid amide] was tested, and the IC50 was 100 to 500 nM.
With `NC(=O)c1sc2nc(OCCN3CCNC3=O)nc(-c3cccc(Cl)c3)c2c1N` [No 61, 5-Amino-4-(3-chloro-phenyl)-2-[2-(2-oxo-imidazolidin-1-yl)-ethoxy]-thieno[2,3-d]pyrimidine-6-carboxylic acid amide] the IC50 was 100 to 500 nM.
For `Cc1ccc(-c2nc(OCCn3cccn3)nc3sc(C(N)=O)c(N)c23)o1` [No 29, 5-Amino-4-(5-methyl-furan-2-yl)-2-(2-pyrazol-1-yl-ethoxy)-thieno[2,3-d]pyrimidine-6-carboxylic acid amide], the IC50 was 100 to 500 nM.
`NC(=O)c1sc2nc(OC[C@@H](O)CO)nc(-c3cccc(Cl)c3)c2c1N` [No 18, 5-Amino-4-(3-chloro-phenyl)-2-((S)-2,3-dihydroxy-propoxy)-thieno[2,3-d]pyrimidine-6-carboxylic acid amide] was tested, and the IC50 was 100 to 500 nM.
With `NC(=O)c1sc2nc(OCC3CCC(CO)CC3)nc(-c3cccc(Cl)c3)c2c1N` (stereo not drawn) [No 67, 5-Amino-4-(3-chloro-phenyl)-2-(4-hydroxymethyl-cyclohexylmethoxy)-thieno[2,3-d]pyrimidine-6-carboxylic acid amide] the IC50 was 100 to 500 nM.
`NC(=O)c1sc2nc(OCCn3ccnc3)nc(-c3cccc(Cl)c3)c2c1N` [No 43, 5-Amino-4-(3-chloro-phenyl)-2-(2-imidazol-1-yl-ethoxy)-thieno[2,3-d]pyrimidine-6-carboxylic acid amide] showed an IC50 of 100 to 500 nM.
For `NC(=O)c1sc2nc(OCCN3CCCC3=O)nc(-c3cccc(Cl)c3)c2c1N` [No 48, 5-Amino-4-(3-chloro-phenyl)-2-[2-(2-oxo-pyrrolidin-1-yl)-ethoxy]-thieno[2,3-d]pyrimidine-6-carboxylic acid amide], the IC50 was < 100 nM.
`NC(=O)c1sc2nc(OCCCCC3NC(=O)NC3=O)nc(-c3cccc(Cl)c3)c2c1N` (stereo not drawn) [No 78, 5-Amino-4-(3-chloro-phenyl)-2-[4-(2,5-dioxo-imidazolidin-4-yl)-butoxy]-thieno[2,3-d]pyrimidine-6-carboxylic acid amide] was tested, and the IC50 was < 100 nM.
`NC(=O)c1sc2nc(OCC3CCC3)nc(-c3cccc(C(F)(F)F)c3)c2c1N` [No 10, 5-Amino-2-cyclobutylmethoxy-4-(3-trifluoromethyl-phenyl)-thieno[2,3-d]pyrimidine-6-carboxylic acid amide] was tested, and the IC50 was > 1000 nM.
`NC(=O)c1sc2nc(OCCC(O)CO)nc(-c3cccc(Cl)c3)c2c1N` (stereo not drawn) [No 62, 5-Amino-4-(3-chloro-phenyl)-2-(3,4-dihydroxy-butoxy)-thieno[2,3-d]pyrimidine-6-carboxylic acid amide] was tested, and the IC50 was < 100 nM.
For `Cc1ccc(-c2nc(OCCO)nc3sc(C(N)=O)c(N)c23)o1` [No 21, 5-Amino-2-(2-hydroxy-ethoxy)-4-(5-methyl-furan-2-yl)-thieno[2,3-d]pyrimidine-6-carboxylic acid amide], the IC50 was 100 to 500 nM.
Compound `COCCOc1nc(-c2cccc(Cl)c2)c2c(N)c(C(N)=O)sc2n1` [No 1, 5-Amino-4-(3-chloro-phenyl)-2-(2-methoxy-ethoxy)-thieno[2,3-d]pyrimidine-6-carboxylic acid amide] has an IC50 of 100 to 500 nM.
In the case of `COc1nc(-c2ccc(C)o2)c2c(N)c(C(N)=O)sc2n1` [No 19, 5-Amino-2-methoxy-4-(5-methyl-furan-2-yl)-thieno[2,3-d]pyrimidine-6-carboxylic acid amide], the IC50 is reported as < 100 nM.
